The values that follow are results of earlier work, collected in patent publication US7816404B2, “Methods for the preparation and use of ferric pyrophosphate citrate chelate compositions” (Rockwell Medical Technologies, Inc., priority 2007, dated 2010).

The conditions of this data set: stability constant with ferric ion.

For `O=C(O)CC(O)(CC(=O)O)C(=O)O` [citrate], the “log Kstab for ferric ion” value is given as 12.
Turning to `O=P(O)(O)OP(=O)(O)O` [pyrophosphate], the “log Kstab for ferric ion” value is 22.2.
